{"source": "patent US11020416B2", "about": "“Cancer chemotherapy employing halogenated analogs of thymidine” (priority 2015, dated 2021)", "origin": "cited, not measured here", "key": {"PARP1": {"molecular_target": "PARP1 (Homo sapiens, UniProt P09874)", "sequence (P09874 whole entry, species assumed)": "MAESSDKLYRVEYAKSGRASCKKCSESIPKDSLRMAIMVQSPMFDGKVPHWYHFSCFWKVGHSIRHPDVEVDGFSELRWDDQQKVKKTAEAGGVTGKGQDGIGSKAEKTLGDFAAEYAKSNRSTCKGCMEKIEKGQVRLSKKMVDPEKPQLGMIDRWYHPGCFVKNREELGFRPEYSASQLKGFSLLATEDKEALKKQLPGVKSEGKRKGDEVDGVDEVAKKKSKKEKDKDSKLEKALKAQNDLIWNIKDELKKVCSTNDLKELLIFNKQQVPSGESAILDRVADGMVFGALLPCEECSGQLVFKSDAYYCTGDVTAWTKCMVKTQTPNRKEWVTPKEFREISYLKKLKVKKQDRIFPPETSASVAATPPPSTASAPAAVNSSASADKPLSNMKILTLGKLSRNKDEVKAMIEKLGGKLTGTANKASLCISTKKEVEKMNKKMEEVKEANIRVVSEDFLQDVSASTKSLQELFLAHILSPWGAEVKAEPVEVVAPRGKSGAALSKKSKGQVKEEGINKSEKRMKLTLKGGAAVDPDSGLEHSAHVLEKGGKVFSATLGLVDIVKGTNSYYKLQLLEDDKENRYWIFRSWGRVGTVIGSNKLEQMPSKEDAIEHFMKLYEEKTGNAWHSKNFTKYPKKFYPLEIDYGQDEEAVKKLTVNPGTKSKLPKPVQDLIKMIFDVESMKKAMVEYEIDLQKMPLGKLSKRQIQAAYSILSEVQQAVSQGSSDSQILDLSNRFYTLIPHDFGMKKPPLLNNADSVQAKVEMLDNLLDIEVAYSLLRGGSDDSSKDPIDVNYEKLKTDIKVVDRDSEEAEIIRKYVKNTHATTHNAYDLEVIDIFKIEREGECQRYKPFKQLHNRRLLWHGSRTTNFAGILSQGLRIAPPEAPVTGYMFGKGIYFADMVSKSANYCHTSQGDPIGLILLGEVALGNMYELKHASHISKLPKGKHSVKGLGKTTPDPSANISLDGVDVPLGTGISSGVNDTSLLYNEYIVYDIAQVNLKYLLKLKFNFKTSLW", "conditions": "solution; Pivazyan, 1992; cited from earlier work"}, "[1]": {"system": "Melanoma, Carcinoma, Sarcoma", "conditions": "trial a, 1961, 16 patients, dose 3.1, iv, rad +/−, multiple cycles up to 5 months; cited from earlier work"}, "[2]": {"system": "Oropharynx and Upper Extremity Tumors", "conditions": "trial b, 1962, 4 patients, dose 3.9, iv/ia, no radiation, single cycle 1 week; cited from earlier work"}, "Carcinoma, Melanoma": {"system": "Carcinoma, Melanoma", "conditions": "trial c, 1962, 39 patients, dose 3.5, iv, no radiation, single cycle 1 week; cited from earlier work"}, "Unresectable Sarcoma": {"system": "Unresectable Sarcoma", "conditions": "trial d, 1987, 14 patients, dose 1.3, iv, with radiation, multiple cycles up to 5 months, cited from earlier work"}, "[3]": {"system": "Colorectal Liver Metastases", "conditions": "trial f, 1989, 11 patients, dose 1.0, ia, no radiation, multiple cycles up to 5 months, cited from earlier work"}, "[4]": {"conditions": "14-day continuous infusion alternating with 14 days without infusion; cited from earlier work"}, "[5]": {"conditions": "cited from earlier work; for [IdU] plasma, average steady-state: continuous iv; for [IU] plasma (iodouracil), average steady-state: continuous iv IdU"}, "[6]": {"conditions": "intraperitoneal, Morgan 1998, cited from earlier work"}, "[7]": {"conditions": "schedule G, 1.000 Grams/M^2/day, Kinsella 1988"}, "[8]": {"conditions": "schedule I, 0.781 Grams/M^2/day, Schultz 2004"}, "[9]": {"conditions": "schedule J, 0.625 Grams/M^2/day, Schultz 2004"}, "[10]": {"conditions": "schedule M, 0.500 Grams/M^2/day, Schultz 2004"}, "[11]": {"conditions": "schedule N, 0.400 Grams/M^2/day, Schultz 2004"}, "[12]": {"conditions": "schedule O, 0.300 Grams/M^2/day, Schultz 2004"}, "[13]": {"conditions": "schedule Q, 0.200 Grams/M^2/day, Schultz 2004"}, "[14]": {"conditions": "schedule R, 0.100 Grams/M^2/day, Schultz 2004"}, "[15]": {"conditions": "schedule A, 4.538 Grams/M^2/4 hr (2 liters), 64 millimolar"}}, "note": "Where two headings read alike, the source gives them in different places."}
{"smiles": "O=c1[nH]c(=O)n([C@H]2C[C@H](O)[C@@H](CO)O2)cc1I", "note": "[Iododeoxyuridine, 5-iododeoxyuridine]", "values": [{"measurement": "Ki", "setting": "PARP1", "result": 18, "unit": "µM"}, {"measurement": "objective improvement", "setting": "[1]", "result": 38, "unit": "%"}, {"measurement": "subjective improvement", "setting": "[1]", "result": 38, "unit": "%"}, {"measurement": "objective improvement", "setting": "[2]", "result": 100, "unit": "%"}, {"measurement": "subjective improvement", "setting": "[2]", "result": 100, "unit": "%"}, {"measurement": "objective improvement", "setting": "Carcinoma, Melanoma", "result": 26, "unit": "%"}, {"measurement": "objective improvement", "setting": "Unresectable Sarcoma", "result": 80, "unit": "%"}, {"measurement": "subjective improvement", "setting": "Unresectable Sarcoma", "result": "more than half of patients"}, {"measurement": "subjective improvement", "setting": "Unresectable Sarcoma; listed as IUDR", "result": 57, "unit": "%"}, {"measurement": "objective improvement", "setting": "[3]", "result": "almost half of the patients"}, {"measurement": "objective improvement", "setting": "[3]; listed as IUDR", "result": 45, "unit": "%"}, {"measurement": "time after HAT withdrawal to myelosuppression nadir and return of blood cell counts to normal", "setting": "[4]", "result": "7 to 10", "unit": "days"}, {"measurement": "plasma concentration achieved", "setting": "[5]; continuous circulatory infusion, historic trials d-f", "result": "> 1.0", "unit": "µM"}, {"measurement": "elimination from patient plasma", "setting": "[5]; pharmacokinetic analysis in patients", "result": "rapidly eliminated"}, {"measurement": "[IdU] plasma, average steady-state", "setting": "[5]; schedule C, 1.200 Grams/M^2/day, Klecker 1985", "result": 7.4, "unit": "µM"}, {"measurement": "[IdU] plasma, average steady-state", "setting": "[5]; schedule D, 1.200 Grams/M^2/day, Kinsella 1988", "result": 3.4, "unit": "µM"}, {"measurement": "[IdU] plasma, average steady-state", "setting": "[5]; schedule E, 1.000 Grams/M^2/day, Klecker 1985", "result": 5.6, "unit": "µM"}, {"measurement": "[IU] plasma (iodouracil), average steady-state", "setting": "[5]; [7]", "result": ">20", "unit": "µM"}, {"measurement": "[IdU] plasma, average steady-state", "setting": "[5]; [7]", "result": 2.4, "unit": "µM"}, {"measurement": "[IdU] plasma, average steady-state", "setting": "[5]; schedule H, 0.850 Grams/M^2/day, Klecker 1985", "result": 4.5, "unit": "µM"}, {"measurement": "[IU] plasma (iodouracil), average steady-state", "setting": "[5]; [8]", "result": 21.8, "unit": "µM"}, {"measurement": "[IdU] plasma, average steady-state", "setting": "[5]; [8]", "result": 1.5, "unit": "µM"}, {"measurement": "[IU] plasma (iodouracil), average steady-state", "setting": "[5]; [9]", "result": 13.9, "unit": "µM"}, {"measurement": "[IdU] plasma, average steady-state", "setting": "[5]; [9]", "result": 1.3, "unit": "µM"}, {"measurement": "[IdU] plasma, average steady-state", "setting": "[5]; schedule K, 0.500 Grams/M^2/day, Klecker 1985", "result": 2.9, "unit": "µM"}, {"measurement": "[IdU] plasma, average steady-state", "setting": "[5]; schedule L, 0.500 Grams/M^2/day, Kinsella 1988", "result": 1.3, "unit": "µM"}, {"measurement": "[IU] plasma (iodouracil), average steady-state", "setting": "[5]; [10]", "result": 6.0, "unit": "µM"}, {"measurement": "[IdU] plasma, average steady-state", "setting": "[5]; [10]", "result": 0.92, "unit": "µM"}, {"measurement": "[IU] plasma (iodouracil), average steady-state", "setting": "[5]; [11]", "result": 4.3, "unit": "µM"}, {"measurement": "[IdU] plasma, average steady-state", "setting": "[5]; [11]", "result": 0.90, "unit": "µM"}, {"measurement": "[IU] plasma (iodouracil), average steady-state", "setting": "[5]; [12]", "result": 3.0, "unit": "µM"}, {"measurement": "[IdU] plasma, average steady-state", "setting": "[5]; [12]", "result": 0.57, "unit": "µM"}, {"measurement": "[IdU] plasma, average steady-state", "setting": "[5]; schedule P, 0.250 Grams/M^2/day, Klecker 1985", "result": 1.1, "unit": "µM"}, {"measurement": "[IU] plasma (iodouracil), average steady-state", "setting": "[5]; [13]", "result": 1.4, "unit": "µM"}, {"measurement": "[IdU] plasma, average steady-state", "setting": "[5]; [13]", "result": 0.79, "unit": "µM"}, {"measurement": "[IU] plasma (iodouracil), average steady-state", "setting": "[5]; [14]", "result": 0.38, "unit": "µM"}, {"measurement": "[IdU] plasma, average steady-state", "setting": "[5]; [14]", "result": 0.51, "unit": "µM"}, {"measurement": "Peritoneal AUC", "setting": "[6]; [15]", "result": 4099, "unit": "µM·h"}, {"measurement": "Plasma AUC", "setting": "[6]; [15]", "result": 139, "unit": "µM·h"}, {"measurement": "Plasma AUC", "setting": "[6]; schedule F, 0.625 Grams/M^2/4 hr (2 liters), 9 millimolar", "result": 4.38, "unit": "µM·h"}]}
